Reference: PubChem BioAssay (NCI)
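1) Cells in 96-well plates. 2) Compound, 48 h, 5 concentrations. 3) Linear interpolation between surrounding doses. 4) Unreached endpoint = highest concentration. TGI denotes the concentration required for complete inhibition of growth.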

Key:
Experiment in all cases: inhibition of tumour cell growth, NCI panel, 48 h
[1] = system: OVCAR-3 ovarian
[2] = system: HOP-92 NSCLC
[3] = system: SK-MEL-5 melanoma
[4] = system: NCI-H226 lung
[5] = system: CCRF-CEM leukemia
[6] = system: NCI-H23 lung
[7] = system: MOLT-4 leukemia
[8] = system: CAKI-1 renal
[9] = system: MDA-MB-435
[10] = system: DU-145 prostate

| Structure (SMILES) | TGI [1] | TGI [2] | TGI [3] | TGI [4] | TGI [5] | TGI [6] | TGI [7] | TGI [8] | TGI [9] | TGI [10] |
| --- | --- | --- | --- | --- | --- | --- | --- | --- | --- | --- |
| Nc1nc(SCc2ccc([N+](=O)[O-])cc2)nc2c1ncn2C1OC(COP(=O)(O)O)C(O)C1O (configuration not stated) | > 100 µM | > 100 µM | > 100 µM | > 100 µM | > 100 µM | > 100 µM | > 100 µM |  |  |  |
| COc1cc2c(cc1OC)C(C(CO)CO)N(CC(O)CCl)CC2 (configuration not stated) | > 100 µM | > 100 µM | > 100 µM | > 100 µM | > 100 µM | > 100 µM | > 100 µM | > 100 µM |  |  |
| COC(=O)/C(=C\Nc1cccc(C)n1)S(=O)(=O)c1ccc(C)cc1 | > 100 µM | > 100 µM | > 100 µM | > 100 µM | > 100 µM | > 100 µM | 70.4 µM |  | > 100 µM | > 100 µM |
| Cc1ccc(S(=O)(=O)N/N=C(\c2nc3ccc(Cl)cc3[nH]c2=O)C(O)c2cccc([N+](=O)[O-])c2)cc1 (configuration not stated) | > 100 µM | > 100 µM | > 100 µM | > 100 µM | > 100 µM | > 100 µM | > 100 µM | > 100 µM |  |  |
| CCOC(=O)c1cc(-c2cc(OC)c(OC)c([N+](=O)[O-])c2)c([N+](=O)[O-])n1C | > 10 µM | > 10 µM |  | > 10 µM | > 10 µM | > 10 µM | > 10 µM |  | 4.72 µM |  |
| CCCSc1ccc2[nH]c(N3C(=O)/C(=C/c4ccco4)N=C3c3ccccc3)cc2c1 | > 50 µM | > 50 µM | 30.3 µM |  | > 50 µM | > 50 µM | > 50 µM | > 50 µM | 28 µM | > 50 µM |
| COc1cc(C2c3cc4c(cc3[C@@H](Nc3ccccc3)C3COC[C@H]23)OCO4)cc(OC)c1O (some centres not stated) |  |  | 68.9 µM |  | 2.15 µM |  |  |  |  |  |
| O=c1[nH]c(=O)n(C2OC(COP(=O)(O)OP(=O)(O)OC3OC(CO)C(O)C(O)C3O)C(O)C2O)cc1F (configuration not stated) | 4.73 µM | 9.62 µM | 23.7 µM | 2.72 µM | > 100 µM | > 31.5 µM | > 100 µM | 18.3 µM |  |  |
| CC(NC(=O)C(C)NC(=O)C(N)CCP(C)(=O)O)C(=O)O (configuration not stated) | > 100 µM | > 100 µM | > 100 µM | > 100 µM | > 100 µM | > 100 µM | > 100 µM | > 100 µM |  |  |
| CCCCCCCCOC1C(O)C(O)C(O)C(O)C12CO2 (configuration not stated) | > 100 µM |  |  | > 100 µM | > 100 µM | 31.3 µM | > 100 µM | > 100 µM | > 100 µM | > 100 µM |
| O=C1c2ccc(O)cc2C(=O)c2ccc(O)cc21 | > 100 µM | > 100 µM | > 100 µM |  | > 100 µM | > 100 µM | > 100 µM | > 100 µM |  |  |
| COC(=O)C1C/C(=C/N(C)C)C(=S)N1 (configuration not stated) | > 100 µM | > 100 µM | > 100 µM |  | > 100 µM | > 100 µM | > 100 µM | > 100 µM | > 100 µM | > 100 µM |
| O=S(=O)(CCBr)CCBr | 12.3 µM | 20.9 µM | 19.8 µM | 54.9 µM | > 30.2 µM | 18.7 µM | 7.75 µM | 16.4 µM |  |  |
| COc1cc2c(c(OC)c1OC)-c1ccc(SC)c(=O)cc1[C@@H](NCc1ccc(C#N)cc1)CC2 | 0.0129 µM | > 100 µM | 15.6 µM | 0.00977 µM |  | 0.00885 µM | > 100 µM | > 100 µM |  |  |
| C[C@]12CCC(=O)C=C1CC[C@@H]1[C@@H]2[C@@H](O)C[C@@]2(C)[C@H]1CC[C@]2(O)C(=O)COC(=O)COCC(=O)O | > 100 µM | > 100 µM | > 100 µM | > 100 µM | > 100 µM | > 100 µM | > 100 µM | > 100 µM |  |  |
| O=C1Nc2ccccc2C12CCNC2Cc1ccccc1 (configuration not stated) | > 100 µM | > 100 µM | > 100 µM |  | > 100 µM | > 100 µM | > 100 µM | > 100 µM |  |  |
| COC(=O)/C=C\n1c(C)cc(=O)[nH]c1=O | > 100 µM | > 100 µM | > 100 µM | > 100 µM | > 100 µM | > 100 µM | > 100 µM |  | > 100 µM |  |
| CC(C)OP(=O)(OC(C)C)/C(I)=N/Nc1ccc([N+](=O)[O-])cc1 | > 100 µM | > 100 µM | > 100 µM |  | > 100 µM | > 100 µM | > 100 µM | > 100 µM |  |  |
| CN(C)c1ccc(C(=C(c2ccc(N(C)C)cc2)c2ccc(N(C)C)cc2)c2ccc(N(C)C)cc2)cc1 | 2.97 µM |  | 31.8 µM | 36.9 µM | 50.4 µM | 33.6 µM | 41 µM | 28 µM |  |  |
